This is an account of results in ChEMBL document CHEMBL3045379, “Synthesis and Fungicidal Activity of 3-1, 2, 4-Thiadiazolines” (J Pestic Sci, 1992).

The source made the active and inactive calls. No cut-off for these calls is given here.

Data set [1] deals with Pseudoperonospora cubensis. The data set is described as follows: Fungicidal activity against Pseudoperonospora cubensis infected in cucumber cv. Sagamihanjiro seedling assessed as reduction in leaf lesion after 4 days by pot test. It counts as functional, organism-based.
The nature of data set [2]: Chemical stability of the compound in acetonitrile solution after 1 day. It counts as physicochemical. The settings on record: 24 h.
In data set [3] the test system is Pseudoperonospora cubensis. The data set is described as follows: Fungicidal activity against Pseudoperonospora cubensis infected cucumber cv. Sagamihanjiro seedling assessed as inhibition of zoospore liberation from zoosporangia after 4 days by microscopic analysis. It counts as functional, organism-based.
Data set [4] in a line: Chemical stability of the compound in acetone solution after 1 day. It counts as physicochemical. The settings on record: 24 h.
The species entered for another data set is Homo sapiens. The data set is described as follows: Inhibition of ADH (unknown origin) at 3 ug/ml after 1 hr.
Data set [5] can be described thus: Chemical stability of the compound in ethanol solution after 1 week. It counts as physicochemical. The settings on record: 168 h.
The test system of data set [6] is Pseudoperonospora cubensis. The data set is described as follows: Fungicidal activity against Pseudoperonospora cubensis infected cucumber cv. Sagamihanjiro seedling assessed as inhibition of zoospore liberation from zoosporangia after 4 days by microscopic analysis in presence of cysteine. Type of data set: functional, organism-based.
Data set [7] in a line: Chemical stability of the compound in THF solution after 1 day. The settings on record: 24 h. Type of data set: physicochemical.

In the case of `CCCc1ccc(/N=c2\nc(-c3ccc(Cl)cc3)n(C)s2)cc1`, in data set [1], the EC50 is 23.8 ppm.

For the compound `CCn1s/c(=N/c2ccc(Br)cc2)nc1-c1ccccc1`, the EC50 in data set [1] was 70.2 ppm.

`CC1(C)Cn2s/c(=N/c3ccc(Cl)cc3)nc2S1`: the EC50 in data set [1] is 35.5 ppm.

Regarding `Cn1s/c(=N/c2ccc(-c3ccccc3)cc2)nc1-c1ccccc1`, the EC50 in data set [1] came to 23.1 ppm.

Regarding `Cn1s/c(=N/c2ccccc2)nc1-c1ccc(Cl)cc1`, the EC50 in data set [1] is listed as 23.4 ppm.

As for `Clc1ccc(/N=c2\nc3n(s2)CCS3)cc1`, the EC50 in data set [1] was 68.6 ppm.

In the case of `COc1n/c(=N\c2ccc(Cl)cc2)sn1C`, the EC50 in data set [1] was greater than 400 ppm.

Turning to `Cn1s/c(=N/c2ccc(Oc3ccc(Cl)cc3)cc2)nc1-c1ccccc1`, the EC50 in data set [1] stood at 31.9 ppm.

With `Cc1ccc(/N=c2\nc(-c3ccc(Cl)cc3)n(C)s2)cc1C`, the EC50 in data set [1] is 13.2 ppm.

For the compound `CN(C)c1ccc(/N=c2\nc(-c3ccc(Cl)cc3)n(C)s2)cc1`, in data set [1], the EC50 came out at 141.5 ppm.

On to `CCOc1n/c(=N\c2ccc(Cl)cc2)sn1C`, for which the EC50 in data set [1] worked out at 308.1 ppm.

In the case of `Cn1s/c(=N/c2ccccc2)nc1-c1ccccc1`, the EC50 in data set [1] is 45.3 ppm.

As to `CSc1n/c(=N\c2ccc(Cl)cc2)sn1C`, the EC50 in data set [1] worked out at 94.9 ppm.

As for `Cn1s/c(=N/c2ccc(I)cc2)nc1-c1ccccc1`, the EC50 in data set [1] is 100 ppm.

For `CCCn1s/c(=N/c2ccc(Cl)cc2)nc1-c1ccccc1`, in data set [1], the EC50 is 9.9 ppm.

In the case of `Cn1s/c(=N/c2ccc(Cl)cc2)nc1-c1ccccc1Cl`, in data set [1], the EC50 amounted to 11.6 ppm.

For the compound `CCn1s/c(=N/c2ccc(Cl)cc2)nc1-c1ccc(Cl)cc1`, in data set [1], the EC50 is recorded as 80.4 ppm.

As to `C/N=C(/N=c1\ssc(=S)n1-c1ccc(Cl)cc1)c1ccccc1`, the EC50 in data set [1] worked out at 84.1 ppm.

With `Cn1s/c(=N/c2ccc(C(C)(C)C)cc2)nc1-c1ccc(Cl)cc1`, the EC50 in data set [1] was 14 ppm.

As for `Cn1s/c(=N/c2ccc(Br)cc2)nc1-c1ccc(Cl)cc1`, the EC50 in data set [1] is reported as 12 ppm.

For the compound `Cn1s/c(=N/c2ccc(Cl)cc2)nc1-c1ccc(Cl)c(Cl)c1`, in data set [1], the EC50 is recorded as 9.5 ppm.

As for `CCN(CC)c1n/c(=N\c2ccc(Cl)cc2)sn1C`, the EC50 in data set [1] amounted to 13.1 ppm.

Regarding `Cn1s/c(=N/c2ccc([N+](=O)[O-])cc2)nc1-c1ccccc1`, the EC50 in data set [1] is on record as greater than 400 ppm.

In the case of `CCCn1s/c(=N/c2ccc(C)cc2)nc1-c1ccccc1`, the EC50 in data set [1] was 141.5 ppm.

In the case of `CN(C)c1n/c(=N\c2ccc(Cl)cc2)sn1C`, the EC50 in data set [1] came to 52.5 ppm.

Take `COc1ccc(/N=c2\nc(-c3ccc(Cl)cc3)n(C)s2)cc1`: in data set [1], the EC50 is 11 ppm.

`Cn1s/c(=N/c2ccc(Cl)cc2)nc1-c1cc(Cl)cc(Cl)c1`: the EC50 in data set [1] was determined as 66.8 ppm.

Take `Cn1s/c(=N/c2ccccc2-c2ccccc2)nc1-c1ccccc1`: in data set [1], the EC50 was found to be 30.4 ppm.

With `CN(C)C(=O)n1s/c(=N/c2ccc(Cl)cc2)nc1-c1ccccc1`, in data set [1], the EC50 was 87.5 ppm.

As to `Cn1s/c(=N/c2ccc(F)cc2)nc1-c1ccc(Cl)cc1`, the EC50 in data set [1] was 22.1 ppm.

With `Cc1cc(C)cc(/N=c2\nc(-c3ccc(Cl)cc3)n(C)s2)c1`, the EC50 in data set [1] turned out to be 26.4 ppm.

Take `Cn1s/c(=N/c2ccc(Cl)cc2)nc1-c1ccco1`: the EC50 in data set [1] is listed as 8.4 ppm.

Consider `CCc1ccc(/N=c2\nc(-c3ccc(Cl)cc3)n(C)s2)cc1`, for which, in data set [1], the EC50 was found to be 21.8 ppm.

As for `Clc1ccc(/N=c2\nc(-c3ccc(Cl)cc3)n(Cc3ccccc3)s2)cc1`, the EC50 in data set [1] is 43.3 ppm.

Regarding `Cn1s/c(=N/c2ccc(Cl)cc2)nc1-c1cccc(Cl)c1`, the EC50 in data set [1] is recorded as 25.2 ppm.

`CC(C)n1s/c(=N/c2ccc(Cl)cc2)nc1-c1ccccc1`: in data set [1], the EC50 came out at 72.9 ppm.

With `Clc1ccc(/N=c2\nc(-c3ccc(Cl)cc3)n(-c3ccccc3)s2)cc1`, the EC50 in data set [1] is listed as greater than 400 ppm.

With `Cn1s/c(=N/c2cccc(Cl)c2Cl)nc1-c1ccc(Cl)cc1`, the EC50 in data set [1] was found to be 179 ppm.

Regarding `Cc1ccc(-c2n/c(=N\c3ccc(Cl)cc3)sn2C)cc1`, the EC50 in data set [1] amounted to 37.4 ppm.

On to `Cn1s/c(=N/c2ccc(Cl)cc2)nc1-c1ccccc1`, for which the Stability entry in data set [2] is recorded as “Unstable”; in data set [4] it was “Unstable”; in data set [5], “Stable”; in data set [7] it was “Unstable”. The EC50 in data set [1] came out at 5.7 ppm. Further, the inhibition entry (in data set [3]; in the data set listed under Homo sapiens) was “Active” in each case. Also, the inhibition entry in data set [6] is “inactive”.

`Cn1s/c(=N/c2cccc(Cl)c2)nc1-c1ccc(Cl)cc1`: the EC50 in data set [1] is listed as 25.9 ppm.

Consider `COc1ccc(-c2n/c(=N\c3ccc(Cl)cc3)sn2C)cc1`, for which the EC50 in data set [1] turned out to be 132.7 ppm.

As to `CCSc1n/c(=N\c2ccc(Cl)cc2)sn1C`, the EC50 in data set [1] turned out to be 36.2 ppm.

`Cc1cccc(/N=c2\nc(-c3ccc(Cl)cc3)n(C)s2)c1`: in data set [1], the EC50 was found to be 26.1 ppm.

Turning to `Cn1s/c(=N/c2ccc(Cl)cc2Cl)nc1-c1ccccc1`, the EC50 in data set [1] stood at 63.4 ppm.

Take `Cc1n/c(=N\c2ccc(Cl)cc2)sn1C`: the EC50 in data set [1] amounted to 66.9 ppm.

For the compound `CCn1s/c(=N/c2cc(Cl)cc(Cl)c2)nc1-c1ccc(Cl)cc1`, the EC50 in data set [1] is 86.7 ppm.

For `CCc1n/c(=N\c2ccc(Cl)cc2)sn1C`, the EC50 in data set [1] is 352.6 ppm.

`CCCCc1ccc(/N=c2\nc(-c3ccc(Cl)cc3)n(C)s2)cc1`: the EC50 in data set [1] is on record as 30.4 ppm.

Turning to `CN(c1ccccc1)c1n/c(=N\c2ccc(Cl)cc2)sn1C`, the EC50 in data set [1] is listed as 37.5 ppm.

On to `Cc1cccc(C)c1/N=c1\nc(-c2ccccc2)n(C)s1`, for which the EC50 in data set [1] was found to be 128.1 ppm.

In the case of `C/N=C(/N=c1\snc(-c2ccccc2)n1-c1ccc(Cl)cc1)c1ccccc1`, the EC50 in data set [1] amounted to 45.3 ppm.

Take `Cn1s/c(=N/c2ccc(Nc3ccccc3)cc2)nc1-c1ccccc1`: the EC50 in data set [1] came to 81 ppm.

Consider `Clc1ccc(/N=c2\nc3n(s2)CCCS3)cc1`, for which the EC50 in data set [1] was greater than 400 ppm.

Regarding `Br.CC/N=c1\nc(-c2ccccc2)n(CC)s1`, the EC50 in data set [1] was greater than 400 ppm.

`Cn1o/c(=N/c2ccc(Cl)cc2)nc1-c1ccc(Cl)cc1`: the EC50 in data set [1] is reported as greater than 400 ppm.

Take `Cn1s/c(=N/c2ccc(O)cc2)nc1-c1ccccc1`: the EC50 in data set [1] amounted to 39.6 ppm.

As for `Cc1cccc(/N=c2\nc(-c3ccc(Cl)cc3)n(C)s2)c1C`, the EC50 in data set [1] is listed as 25 ppm.

As to `Cc1ccc(/N=c2\nc(-c3ccc(Cl)cc3)n(C)s2)cc1`, the EC50 in data set [1] is given as 9.2 ppm.

As for `Cn1s/c(=N/c2ccc(Cl)cc2)nc1Cc1ccccc1`, the EC50 in data set [1] was 79.1 ppm.

With `Cn1s/c(=N/c2ccc(Cl)cc2)nc1-c1ccc([N+](=O)[O-])cc1`, the EC50 in data set [1] turned out to be 29.7 ppm.

In the case of `Br.Cn1s/c(=N/C2CCCCC2)nc1-c1ccccc1`, in data set [1], the EC50 is recorded as greater than 400 ppm.

For `CCOC(=O)C1CN(c2ccc(Cl)cc2)/C(=N/C(=N/C)c2ccccc2)S1` (stereo not drawn), in data set [1], the EC50 is 92.8 ppm.

Turning to `Cn1s/c(=N/c2ccc(Cl)cc2)nc1C(Cl)(Cl)Cl`, in data set [1], the EC50 turned out to be 37 ppm.

For the compound `Cn1s/c(=N/c2ccc(Cl)c(Cl)c2)nc1-c1ccc(Cl)cc1`, the EC50 in data set [1] amounted to 24.7 ppm.

With `CC(C)c1n/c(=N\c2ccc(Cl)cc2)sn1C`, the EC50 in data set [1] is 252.7 ppm.

Take `Cn1s/c(=N/c2ccc(Cl)cc2)nc1SCc1ccccc1`: in data set [1], the EC50 is on record as 46.2 ppm.

For `CCn1s/c(=N/c2cccc([N+](=O)[O-])c2)nc1-c1ccccc1`, in data set [1], the EC50 is on record as 63.1 ppm.

In the case of `Cn1s/c(=N/c2ccc(Br)cc2)nc1-c1ccccc1`, the EC50 in data set [1] is on record as 17.9 ppm.

Turning to `Cn1s/c(=N/C(=O)c2ccc(Cl)cc2)nc1-c1ccc(Cl)cc1`, the EC50 in data set [1] worked out at 400 ppm.

`Cc1ccc(/N=c2\nc(-c3ccccc3)n(C)s2)cc1`: the EC50 in data set [1] was found to be 60.2 ppm.

As to `Cn1s/c(=N/c2ccc(Br)cc2)nc1-c1ccc(Cl)cc1Cl`, in data set [1], the EC50 is recorded as 131.1 ppm.

As to `CCn1s/c(=N/c2ccc(Cl)cc2)nc1-c1ccccc1`, the EC50 in data set [1] is given as 13.6 ppm.

Regarding `C/N=C(/N=c1\sn(-c2ccccc2)c(=S)n1-c1ccc(Cl)cc1)c1ccccc1`, the EC50 in data set [1] was 33.6 ppm.

Consider `Clc1ccc(Nc2nc(-c3ccccc3)ns2)cc1`, for which the EC50 result in data set [1] is recorded as “Not Active”.

`Cn1s/c(=N/c2ccc(Cl)cc2)nc1-c1ccc(Cl)cc1`: the EC50 in data set [1] was determined as 7.2 ppm.
